Experimental data taken from US20250115739A1, “COMPOUND, RUBBER BLEND CONTAINING THE COMPOUND, VEHICLE TIRE COMPRISING THE RUBBER BLEND IN AT LEAST ONE COMPONENT, PROCESS FOR PREPARING THE COMPOUND, AND USE OF THE COMPOUND AS AN ANTI-AGING AGENT AND/OR ANTIOXIDANT” (Continental Reifen Deutschland GmbH, priority 2022, published 2025).

Assay: Measurement of oxidation induction time (OIT) by DSC
Conditions: for Time [min] at 180° C. (time to oxidation, oxidation induction time): isothermal 180° C., O2 atmosphere 50 ml/min, with polyisoprene LIR-50, DSC peak
Description: The compound of formula III) was investigated under laboratory conditions for its potential protective effect as an aging stabilizer by measurement of the oxidation induction time.
To this end the compounds of formula III) and 6-PPD in each case together with a polymer (liquid synthetic polyisoprene (IR), LIR-50, Kuraray, weight average molecular weight distribution Mw=54 000 g/mol, glass transition temperature Tg=−63° C.) were heated at constant temperature (180° C.) until onset of oxidation (start temperature 35° C., heating to 170° C. at a heating rate of 20 K/min (kelvin per minute), heating to 180° C. at a heating rate of 1 K/min; purge gas: nitrogen (N2), volume flow 50 ml/min).
The specimen was kept under isothermal conditions at 180° C. under an N2 atmosphere for 5 minutes and the atmosphere was then switched to an 02 atmosphere (volume flow 50 ml/min).
Oxidation was determined via a peak using DSC (differential scanning calorimetry).
The time in minutes to oxidation was measured.

Row | SMILES | Time [min] at 180° C. (time to oxidation, oxidation induction time) | protective effect as aging stabilizer (from OIT) (taking into account measurement accuracy of 10 minutes)
1 | CC1CCC2C(C1)Nc1ccc(Nc3ccccc3)cc1C2(C)C (stereo not drawn) [Formula III), 6,9,9-trimethyl-N-phenyl-5,6,7,8,8a,9,10,10a-octahydroacridin-2-amine] | 93 ± 10 min | protective effect comparable to 6PPD
2 | CC(C)CC(C)Nc1ccc(Nc2ccccc2)cc1 (stereo not drawn) [Substance 6PPD, N-(1,3-dimethylbutyl)-N′-phenyl-p-phenylenediamine, reference compound] | 116 ± 10 min | –
